# Measurements published in patent publication US20030216361A1, “Therapeutic compositions effective against gram positive bacteria” (priority 2000, published 2003).
# Where two headings read alike, the source gives them in different places.
# Experiments:
# Lactobacillus spp. = assay: Broth macrodilution MIC and MBC, clinical isolates; details: clinical isolate, 1 strain
# B. licheniformis = assay: Broth macrodilution MIC and MBC, clinical isolates; details: clinical isolate, 1 strain
# [1] = tested on: Arcanobacterium haemolyticum; assay: Broth macrodilution MIC and MBC, clinical isolates; details: clinical isolate, 1 strain
# [2] = tested on: Listeria monocytogenes, clinical isolate; assay: Effect of pH on broth macrodilution MICs; format: cell-based
# [3] = tested on: Enterococcus faecalis ATCC 29212; assay: Broth macrodilution MIC and MBC, reference strains; details: ATCC29212
# [4] = tested on: Candida albicans ATCC 90028; assay: Disk diffusion susceptibility testing
# [5] = tested on: Pseudomonas aeruginosa Presque Isle 99; assay: Disk diffusion susceptibility testing
# [6] = tested on: Corynebacterium hoagi ATCC 7005; assay: Broth macrodilution MIC and MBC, reference strains; details: ATCC7005
# [7] = tested on: Penicillin-resistant Streptococcus pneumoniae; assay: Broth macrodilution MIC and MBC, clinical isolates
# [8] = tested on: Bacillus subtilis Presque Isle 620; assay: Broth macrodilution MIC and MBC, reference strains
# [9] = tested on: Escherichia coli ATCC 25922; assay: Disk diffusion susceptibility testing
# R. equi = assay: Broth macrodilution MIC and MBC, clinical isolates; details: 3 strains
# [10] = tested on: Vancomycin-resistant Enterococcus spp.; assay: Broth macrodilution MIC and MBC, clinical isolates
# [11] = tested on: Streptococcus pneumoniae ATCC 6303; assay: Broth macrodilution MIC and MBC, reference strains; details: ATCC6303
# [12] = tested on: Bacillus subtilis Presque Isle 620; assay: Effect of pH on broth macrodilution MICs; format: cell-based
# [13] = tested on: Proteus vulgaris Presque Isle 365; assay: Disk diffusion susceptibility testing
# N. farcinica = assay: Broth macrodilution MIC and MBC, clinical isolates; details: clinical isolate, 1 strain
# [14] = tested on: Stenotrophomonas maltophilia ATCC 13637; assay: Disk diffusion susceptibility testing
# C. sputi = assay: Broth macrodilution MIC and MBC, clinical isolates; details: clinical isolate, 1 strain
# [15] = tested on: Bacillus subtilis Presque Isle 620; assay: Disk diffusion susceptibility testing
# Nocardia asteroides = assay: Broth macrodilution MIC and MBC, clinical isolates; details: clinical isolate, 1 strain
# [16] = tested on: Vancomycin-resistant E. faecalis; assay: Broth macrodilution MIC and MBC, clinical isolates; details: 2 strains
# [17] = tested on: Bacillus subtilis Presque Isle 620; assay: Frequency of occurrence of spontaneous resistant mutants; format: cell-based; details: 24 h
# Experimental: (§1) Overnight cultures of S. aureus 29213, E. faecalis 29212, S. pneumoniae 6303 and Bacillus subtilis 620 were diluted to an OD625nm=0.08 0.1 ml of each preparation was spread onto agar plates containing four or eight times the broth macrodilution MIC of the androstane derivative. The starting inoculum for each organism was also diluted and plated onto drug-free plates for determination of CFU/ml. After a 24 h incubation at the appropriate temperature, the number of bacterial colonies on drug-supplemented agar was counted. The frequency of occurrence of spontaneous mutants was calculated by dividing the number of colonies on drug containing plates by the number of colonies in the inoculum. When no colonies were visualized on drug-containing plates, the calculation was (<) 1 colony divided by the number of colonies in the inoculum.
# [18] = tested on: Staphylococcus aureus ATCC 29213; assay: as above; format: cell-based; details: 24 h
# Experimental: as §1
# [19] = tested on: Streptococcus pneumoniae ATCC 6303; assay: as above; format: cell-based; details: 24 h
# Experimental: as §1
# [20] = tested on: Enterococcus faecalis ATCC 29212; assay: as above; format: cell-based; details: 24 h
# Experimental: as §1
# [21] = tested on: Cryptococcus neoformans ATCC 90112; assay: Disk diffusion susceptibility testing
# Rhodococcus spp. = assay: Broth macrodilution MIC and MBC, clinical isolates
# S. aureus ATCC 29213 = assay: Effect of pH on broth macrodilution MICs; format: cell-based, Staphylococcus aureus
# [22] = pH 6, range of 3 determinations
# [23] = pH 8, range of 3 determinations
# [24] = pH 7, range of 3 determinations
# [25] = agar with 4X broth macrodilution MIC
# [26] = agar with 8X broth macrodilution MIC
smiles,measurement,setting,value
CC(=O)O[C@H]1CC[C@@]2(C)[C@@H](CC[C@@H]3[C@@H]2CC[C@]2(C)[C@@H](NC(=O)[C@@H]4CCCN4)CC[C@@H]32)C1,MBC Range,Lactobacillus spp.,32 µg/mL
same,MIC Range,Lactobacillus spp.,16 µg/mL
same,MBC Range,B. licheniformis,>64 µg/mL
same,MIC Range,B. licheniformis,32 µg/mL
same,MBC Range,[1],32 µg/mL
same,MIC Range,[1],16 µg/mL
same,MIC Range,[2]; [22],32 µg/mL
same,MIC Range,[2]; [23],16 µg/mL
same,MBC,[3],32 µg/mL
same,MIC,[3],16 µg/mL
same,MIC,[4],>100 μg/disk
same,MIC,[5],>100 μg/disk
same,MBC,[6],32 µg/mL
same,MIC,[6],8 µg/mL
same,MIC50,[7]; Streptococcus pneumoniae,16 µg/mL
same,MIC90,[7]; Streptococcus pneumoniae,16 µg/mL
same,MBC,"[7]; Streptococcus pneumoniae, read-out: MBC 50%",16 µg/mL
same,MBC,"[7]; Streptococcus pneumoniae, read-out: MBC 90%",32 µg/mL
same,MIC Range,"[7]; clinical isolates, 35 strains",8 to 32 µg/mL
same,share of strains with MBC/MIC ratios ≦2,[7]; penicillin-resistant S. pneumoniae,88%
same,MBC,[8],4 µg/mL
same,MIC,[8],4 µg/mL
same,MIC,[9],>100 μg/disk
same,MBC Range,R. equi,16 to 32 µg/mL
same,MIC Range,R. equi; read after 48 h,4 to 8 µg/mL
same,MIC50,[10]; Enterococcus,8 µg/mL
same,MIC90,[10]; Enterococcus,16 µg/mL
same,MBC,"[10]; Enterococcus, read-out: MBC 50%",16 µg/mL
same,MBC,"[10]; Enterococcus, read-out: MBC 90%",> 64 µg/mL
same,MIC Range,"[10]; clinical isolates, 34 strains",4 to 16 µg/mL
same,share of strains with MBC/MIC ratios ≦2,[10]; vancomycin-resistant Enterococcus spp.,59%
same,MBC,[11],16 µg/mL
same,MIC,[11],16 µg/mL
same,MIC Range,[12]; [22],8 µg/mL
same,MIC Range,[12]; [24],4 to 8 µg/mL
same,MIC Range,[12]; [23],4 to 8 µg/mL
same,MIC,[13],>100 μg/disk
same,MBC Range,N. farcinica,64 µg/mL
same,MIC Range,N. farcinica,16 µg/mL
same,MIC,[14],>100 μg/disk
same,MBC Range,C. sputi,32 µg/mL
same,MIC Range,C. sputi; read at 72 h,8 µg/mL
same,MIC,[15],3.12-6.25 μg/disk
same,MBC Range,Nocardia asteroides,32 µg/mL
same,MIC Range,Nocardia asteroides,8 µg/mL
same,MBC Range,[16],16 to 64 µg/mL
same,MIC Range,[16],8 to 16 µg/mL
same,Frequency at 4X MIC,[17]; [25],<2.2 × 10^−7
same,Frequency at 8X MIC,[17]; [26],<2.2 × 10^−7
same,Frequency at 4X MIC,[18]; [25],1.2 × 10^−6
same,Frequency at 8X MIC,[18]; [26],<6 × 10^−9
same,Frequency at 4X MIC,[19]; [25],<3.3 × 10^−6
same,Frequency at 8X MIC,[19]; [26],<3.3 × 10^−6
same,Frequency at 4X MIC,[20]; [25],8.9 × 10^−7
same,Frequency at 8X MIC,[20]; [26],<1 × 10^−8
same,MIC,[21],>100 μg/disk
same,MIC50,Rhodococcus spp.; Rhodococcus,8 µg/mL
same,MIC90,Rhodococcus spp.; Rhodococcus,16 µg/mL
same,share of strains with MBC/MIC ratios ≦2,Rhodococcus spp.; Rhodococcus spp.,58%
same,MBC,"Rhodococcus spp.; Rhodococcus, read-out: MBC 50%",16 µg/mL
same,MBC,"Rhodococcus spp.; Rhodococcus, read-out: MBC 90%",32 µg/mL
same,MIC Range,"Rhodococcus spp.; clinical isolates, 19 strains, read after 48 h",4 to 64 µg/mL
same,MIC Range,S. aureus ATCC 29213; [22],8 to 16 µg/mL
same,MIC Range,S. aureus ATCC 29213; [24],8 µg/mL
same,MIC Range,S. aureus ATCC 29213; [23],4 µg/mL
